# Measurements published in patent US4367339A, “Substituted N-nitroaniline compounds and inorganic and organic salts thereof useful for enhancing auxiliary branching, canopy flowering and crop yield of plant and as lodging inhibitors therefor” (priority 1980, dated 1983).
# Counter-ions that a name gives are not always drawn.
# How the values were obtained:
# [1] = test system: soybean (Glycine max) Adelphia; test: Dwarfing and stem stiffening of soybeans (plant height, greenhouse, foliar spray); format: in vivo; conditions: three weeks after spraying
# Procedure: (§1) In the following tests, test compounds are dissolved or dispersed in acetone-water (1:1) mixtures at the final concentration corresponding to the kg/ha rates indicated in the table below. The solution also contains 0.25% v/v colloidal BIOFILM® (a product of Colloidal Products Corp.) which is a mixture of alkyl aryl polyethoxyethanol, free and combined fatty acids, glycol ethers, dialkylbenzene carboxylate and 2-propanol.
# (§2) The plant species used in these tests are barley (Hordeum vulgare), (Mexico) and soybean (Glycine max)Adelphia.
# (§3) The solution or dispersion of the compound under test is sprayed at a rate of 747 l/ha with a moving nozzle along an overhead stationary track. The spray nozzle moves at a constant speed over the plants.
# (§4) The plants are grown in plastic pots, and are well established at the time of treatment. The seedlings of barley are 10 to 20 cm in height, while the seedlings of soybeans are at the second to third trifoliate stage. Plants are watered prior to treatment and then sprayed to provide the kg/ha rate of test compound desired. After spraying the plants are placed on greenhouse benches and watered and fertilized in accordance with normal greenhouse procedures.
# (§5) Three weeks after spraying the plants are measured and harvested. Harvesting is done at the boot stage. All treatments are replicated six times and comparisons are made against untreated controls. Data obtained are reported in Table VI below as percent reduction in plant height over untreated controls.
# [2] = test system: soybeans (Glycine max) Adelphia variety; test: Increasing axillary branching and improving the canopy of broad leaf plants (soybeans); format: in vivo, soybean (Glycine max); conditions: three weeks after treatment
# Source text: In these tests seedling soybean plants approximately three weeks old, and grown in plastic pots to the 2nd to 3rd trifoliate stage, are sprayed with solutions or dispersions of test compound prepared as described in Example 7 above. The same spraying apparatus, described in Example 7 above, is used and after spraying the plants are placed on greenhouse benches and watered and fertilized. Three weeks after treatment the plants are examined to determine what effect the application of test compound has had on the axillary branching and canopy development of the treated plants.
# Increased axillary branching and improved canopy are biological responses which are highly advantageous in the growing of ornamental plants. These responses also have advantage in many crops since increased branching may result in the greater production of fruit, while improved canopy tends to shade and suppress the growth of undesirable weeds that compete with the crops for sunlight, water and plant nutrients. Data obtained are reported in table VII below where axillary branching and canopy are reported as percent increase over untreated controls.
# [3] = test system: soybeans (Glycine max) var. Adelphia; test: Increasing flowering of plants (soybeans); format: in vivo, soybean (Glycine max); conditions: three weeks after spraying
# Procedure: In the following tests seedling soybean plants growing in plastic cups are sprayed with aqueous-acetone solutions or dispersions of test compounds when they have reached the 2nd to 3rd trifoliate stage. Test solutions or dispersions are prepared with 0.25 v/v Colloidal BIOFILM® surfactant and sufficient test compound to provide the plants with 0.5, 0.25, 0.125 or 0.06 kg/ha of said compound when the test solutions are sprayed on said plants from an overhead sprayer delivering 747 l/ha of solution.
# After spraying the plants are placed on greenhouse benches and watered and fertilized. Three weeks after spraying the plants are examined and the amount of flowering determined for all plants. Data obtained are reported in the table below as percent increase in flowering over untreated controls.
# From the data reported in Table VIII below it can be seen that the compounds of the present invention applied at rates of from 0.06 to 0.25 kg/ha enhance flowering of treated plant more than 10% over untreated controls. This response is particularly desirable for treatment of flowering varieties of ornamental plants as well as agronomic crops.
# barley (Hordeum vulgare) = test: Dwarfing of barley (plant height, greenhouse, foliar spray); format: in vivo; conditions: three weeks after spraying
# Procedure: as §1, §2, §3, §4, §5
# [4] = rate 0.125 kg/ha, listed as Methylamine salt with 2,4,6-tribromo-N--aci-nitroaniline
# [5] = rate 0.125 kg/ha, potassium salt
# [6] = rate 0.25 kg/ha, potassium salt
smiles,measurement,setting,value
"O=[N+]([O-])Nc1c(Br)cc(Br)cc1Br [1,1-Dimethylpiperidinium salt with 2,4,6-tribromo-N--aci-nit] [1,1-Dimethylpiperidinium salt with 2,4,6-tribromo-N--aci-nitroaniline]",% Reduction in Plant Height over untreated controls,[1]; rate 0.125 kg/ha,> 25%
same,% Reduction in Plant Height over untreated controls,[1]; rate 0.25 kg/ha,> 35%
same,% Reduction in Plant Height over untreated controls,[1]; rate 0.5 kg/ha,> 50%
same,% Increase in Plant Canopy over untreated controls,[2]; rate 0.125 kg/ha,normal
same,% Increase in axillary branching over untreated controls,[2]; rate 0.125 kg/ha,normal
same,% Increase in axillary branching over untreated controls,[2]; rate 0.25 kg/ha,normal
same,% Increase in Flowering over untreated controls,[3]; rate 0.125 kg/ha,normal
"Cn1c(-c2ccccc2)cc(-c2ccccc2)[n+]1C.O=[N+]([O-])[N-]c1c(Br)cc(Br)cc1I [1,2-Dimethyl-3,5-diphenylpyrazolium salt with 2,4-dibromo-6-iodo-N--aci-nitroaniline]",% Reduction in Plant Height over untreated controls,[1]; rate 0.125 kg/ha,> 10%
same,% Reduction in Plant Height over untreated controls,[1]; rate 0.25 kg/ha,> 15%
same,% Reduction in Plant Height over untreated controls,[1]; rate 0.5 kg/ha,> 25%
same,% Increase in Flowering over untreated controls,[3]; rate 0.5 kg/ha,normal
"O=[N+]([O-])Nc1c(Br)cc(Br)cc1Br [2,4,6-Tribromo-N--nitroaniline tetrabutyl, ammonium salt]",% Reduction in Plant Height over untreated controls,"barley (Hordeum vulgare); rate 0.17 kg/ha, ammonium salt",10.5%
same,% Reduction in Plant Height over untreated controls,"barley (Hordeum vulgare); rate 1.5 kg/ha, ammonium salt",15.8%
"O=[N+]([O-])Nc1c(Br)cc(Br)cc1Br [2,4,6-Tribromo-N--nitroaniline with ammonia (1:1)]",% Reduction in Plant Height over untreated controls,barley (Hordeum vulgare); rate 0.50 kg/ha,16.3%
same,% Reduction in Plant Height over untreated controls,barley (Hordeum vulgare); rate 1.5 kg/ha,15.3%
same,% Reduction in Plant Height over untreated controls,[1]; rate 0.5 kg/ha,> 60%
same,% Reduction in Plant Height over untreated controls,[1]; rate 2.0 kg/ha,> 60%
same,% Increase in Plant Canopy over untreated controls,[2]; rate 0.5 kg/ha,Injury
"O=[N+]([O-])Nc1c(Br)cc(Br)cc1Br [2,4,6-Tribromo-N--nitroaniline with dibenzylamine]",% Increase in Plant Canopy over untreated controls,[2]; rate 0.125 kg/ha,normal
same,% Increase in axillary branching over untreated controls,[2]; rate 0.125 kg/ha,normal
same,% Increase in axillary branching over untreated controls,[2]; rate 0.25 kg/ha,normal
same,% Increase in Flowering over untreated controls,[3]; rate 0.125 kg/ha,normal
"O=[N+]([O-])Nc1c(Br)cc(Br)cc1Br [2,4,6-Tribromo-N--nitroaniline with dodecylamine]",% Increase in Plant Canopy over untreated controls,[2]; rate 0.125 kg/ha,normal
same,% Increase in axillary branching over untreated controls,[2]; rate 0.125 kg/ha,normal
same,% Increase in Flowering over untreated controls,[3]; rate 0.125 kg/ha,normal
"O=[N+]([O-])Nc1c(Br)cc(Br)cc1Br [2,4,6-Tribromo-N--nitroaniline with methylamine (1:1)]",% Reduction in Plant Height over untreated controls,barley (Hordeum vulgare); rate 0.11 kg/ha,10%
same,% Reduction in Plant Height over untreated controls,barley (Hordeum vulgare); rate 0.56 kg/ha,> 50%
same,% Reduction in Plant Height over untreated controls,barley (Hordeum vulgare); rate 2.24 kg/ha,> 50%
same,% Reduction in Plant Height over untreated controls,[1]; rate 0.5 kg/ha,> 60%
same,% Reduction in Plant Height over untreated controls,[1]; rate 2.0 kg/ha,> 60%
same,% Increase in Plant Canopy over untreated controls,[2]; [4],normal
same,% Increase in axillary branching over untreated controls,[2]; [4],normal
same,% Increase in axillary branching over untreated controls,"[2]; rate 0.25 kg/ha, listed as Methylamine salt with 2,4,6-tribromo-N--aci-nitroaniline",normal
same,% Increase in axillary branching over untreated controls,"[2]; rate 0.5 kg/ha, listed as Methylamine salt with 2,4,6-tribromo-N--aci-nitroaniline",normal
"O=[N+]([O-])Nc1c(Br)cc(Br)cc1Br [2,4,6-Tribromo-N--nitroaniline with octylamine (1:1)]",% Reduction in Plant Height over untreated controls,barley (Hordeum vulgare); rate 0.17 kg/ha,10.5%
same,% Reduction in Plant Height over untreated controls,barley (Hordeum vulgare); rate 0.50 kg/ha,13.0%
same,% Reduction in Plant Height over untreated controls,barley (Hordeum vulgare); rate 1.5 kg/ha,11.1%
same,% Increase in axillary branching over untreated controls,"[2]; rate 0.125 kg/ha, octylamine salt",normal
same,% Increase in Plant Canopy over untreated controls,"[2]; rate 0.5 kg/ha, octylamine salt",slight reduction
"O=[N+]([O-])Nc1c(Br)cc(Br)cc1Br [2,4,6-Tribromo-N--nitroaniline, potassium salt]",% Reduction in Plant Height over untreated controls,"barley (Hordeum vulgare); rate 0.17 kg/ha, potassium salt",2.7%
same,% Reduction in Plant Height over untreated controls,"barley (Hordeum vulgare); rate 0.50 kg/ha, potassium salt",11.8%
same,% Reduction in Plant Height over untreated controls,"barley (Hordeum vulgare); rate 1.5 kg/ha, potassium salt",2.0%
same,% Reduction in Plant Height over untreated controls,[1]; [5],> 5%
same,% Reduction in Plant Height over untreated controls,[1]; [6],> 5%
same,% Reduction in Plant Height over untreated controls,"[1]; rate 0.5 kg/ha, potassium salt",> 30%
same,% Increase in axillary branching over untreated controls,[2]; [5],normal
same,% Increase in axillary branching over untreated controls,[2]; [6],normal
same,% Increase in Plant Canopy over untreated controls,"[2]; rate 0.5 kg/ha, potassium salt",normal
same,% Increase in Flowering over untreated controls,"[3]; rate 0.5 kg/ha, potassium salt",normal
"O=[N+]([O-])Nc1c(Br)cc(Br)cc1Br [2,4,6-Tribromo-N--nitroaniline, sodium salt]",% Reduction in Plant Height over untreated controls,"barley (Hordeum vulgare); rate 0.17 kg/ha, sodium salt",6.2%
same,% Reduction in Plant Height over untreated controls,"barley (Hordeum vulgare); rate 0.50 kg/ha, sodium salt",13.0%
same,% Reduction in Plant Height over untreated controls,"barley (Hordeum vulgare); rate 1.5 kg/ha, sodium salt",13.0%
same,% Reduction in Plant Height over untreated controls,"[1]; rate 0.125 kg/ha, sodium salt",> 35%
same,% Reduction in Plant Height over untreated controls,"[1]; rate 0.25 kg/ha, sodium salt",> 40%
same,% Increase in Flowering over untreated controls,"[3]; rate 0.5 kg/ha, sodium salt",normal
"O=[N+]([O-])Nc1c(Br)cc(Br)cc1Br [Methyltriphenyl phosphonium salt with 2,4,6-tribromo-N--aci-] [Methyltriphenyl phosphonium salt with 2,4,6-tribromo-N--aci-nitroaniline]",% Reduction in Plant Height over untreated controls,[1]; rate 0.125 kg/ha,> 25%
same,% Reduction in Plant Height over untreated controls,[1]; rate 0.25 kg/ha,> 35%
same,% Reduction in Plant Height over untreated controls,[1]; rate 0.5 kg/ha,> 50%
same,% Increase in Plant Canopy over untreated controls,[2]; rate 0.125 kg/ha,normal
same,% Increase in axillary branching over untreated controls,[2]; rate 0.125 kg/ha,normal
same,% Increase in axillary branching over untreated controls,[2]; rate 0.25 kg/ha,normal
same,% Increase in Flowering over untreated controls,[3]; rate 0.125 kg/ha,normal
